Holding throughout (type): cell-based
Assay [1] deals with pancreatic cancer cells DAN-G. Kind of assay: In vitro antitumor assay (Methylene Blue staining), DAN-G. The settings on record: 72 hours culture with compound; read-out: Cell line IC50 DAN-G. The source says:
(§1) Gastric cancer and pancreatic cancer cell lines were respectively inoculated on a 96-well plate. Gastric cancer cells KATO III were inoculated at a rate of 1×10^4 cells/well gastric cancer cells MKN-1 were inoculated at a rate of 5×10^5 cells/well, gastric cancer cells MKN-45 were inoculated at a rate of 1×10^4 cells/well, gastric cancer cells MKN-74 were inoculated at a rate of 1×10^4 cells/well, pancreatic cancer cells AsPC-1 were inoculated at a rate of […], pancreatic cancer cells BxPC-3 were inoculated at a rate of 5×10^5 cells/well, pancreatic cancer cells DAN-G were inoculated at a rate of 5×10^5 cells/well, and pancreatic cancer cells SUIT-2 were inoculated at a rate of 5×10^5 cells/well. After culturing the cells for 24 hours, each of the Example compounds or each of the Comparative Example compounds was added to the cells to obtain a final concentration of from 0.0244 μmol/L to 100 μmol/L at a common ratio of 4. Three technical replicates were used. Wells to which no drug was added were prepared as control, and wells to which cells and drugs were not added were prepared as blanks. After the cells were cultured for 72 hours, the culture fluid was removed, the cells were fixed with methanol, and then the cells were stained using a Methylene Blue stain solution. After excess Methylene blue stain solution was washed off, 200 μL of 0.1% hydrochloric acid was added to each well, and the dye was extracted. The light absorbance at 660 nm was measured using a microplate reader, and the cell proliferation inhibitory activity (GI %) was calculated from the light absorbance thus obtained by the following formula. GIXY %=(1−(AXY−B)/(C−B))×100
(§2) Here, GIXY % represents the cell prolj feration-inhibitory activity when the concentration of compound. X is Y μM; AXY represents the average light absorbance of the well to which compound X has been added at Y μM; B represents the light absorbance of a blank well; and C represents the tight absorbance of a control well.
(§3) The GIXY % was determined for various compound concentrations, and a proliferation-inhibition curve was plotted from the concentration and the cell proliferation-inhibitory activity.

The subject of assay [2] is gastric cancer cells MKN-74. Kind of assay: In vitro antitumor assay (Methylene Blue staining), MKN-74. The settings on record: 72 hours culture with compound; read-out: Cell line IC50 MKN-74.
Source text: as §1, §2, §3

In assay [3] the test system is gastric cancer cells MKN-1. Kind of assay: In vitro antitumor assay (Methylene Blue staining), MKN-1. The settings on record: 72 hours culture with compound; read-out: Cell line IC50 MKN-1.
Source text: as §1, §2, §3

Assay [4] relates to pancreatic cancer cells SUIT-2. Put plainly: In vitro antitumor assay (Methylene Blue staining), SUIT-2. The settings on record: 72 hours culture with compound; read-out: Cell line IC50 SUIT-2.
Source text: as §1, §2, §3

Assay [5] concerns pancreatic cancer cells AsPC-1. Put plainly: In vitro antitumor assay (Methylene Blue staining), AsPC-1. The settings on record: 72 hours culture with compound; read-out: Cell line IC50 AsPC-1.
Source text: as §1, §2, §3

The subject of assay [6] is gastric cancer cells MKN-45. Put plainly: In vitro antitumor assay (Methylene Blue staining), MKN-45. The settings on record: 72 hours culture with compound; read-out: Cell line IC50 MKN-45.
Source text: as §1, §2, §3

Assay [7] has as its system gastric cancer cells KATO III. Kind of assay: In vitro antitumor assay (Methylene Blue staining), KATO III. Particulars: 72 hours culture with compound; read-out: Cell line IC50 KATO III.
Source text: as §1, §2, §3

Assay [8] deals with pancreatic cancer cells BxPC-3. Kind of assay: In vitro antitumor assay (Methylene Blue staining), BxPC-3. The settings on record: 72 hours culture with compound; read-out: Cell line IC50 BxPC-3.
Source text: as §1, §2, §3

One may read the IC50 as the point on the concentration scale where inhibition reaches its midpoint. As to `N[C@@H]1CCCC[C@H]1N.O=C1[O][Pt]([OH])([OH])[O]C(=O)C12CCC2` (mixture of isomers) [Comparative Example 6, trans,cis,cis-[Pt(OH)2(R,R-dach) (cbdc)]], the half-inhibitory concentration (IC50) was above 100 µM in assay [1], above 100 µM in assay [2], above 100 µM in assay [3] and 79.4 µM in assay [4].
In the case of `N[C@@H]1CCCC[C@H]1N.O=C([O-])C(=O)[O-].[Cl-].[OH-].[Pt+4]` (mixture of isomers) [Example 1, trans,cis,cis-[PtCl(OH) (R,R-dach) (ox)]], the IC50 in assay [5] was determined as 3.1 µM; in assay [1], 1 µM; in assay [6] it was 0.3 µM; in assay [7] it was 13.8 µM; in assay [2], 16 µM; in assay [3], 1.9 µM. In addition, the half-maximal inhibitory concentration (IC50) came to 1.2 µM in assay [8] and 0.9 µM in assay [4].
For the compound `N[C@@H]1CCCC[C@H]1N.O=C(CCc1ccccc1)[O][Pt]1([O]C(=O)CCc2ccccc2)[O]C(=O)C(=O)[O]1` [Comparative Example 4, trans,cis,cis-[Pt(OCOCH2CH2C6H5)2 (R,R-dach)(ox)]], the IC50 in assay [1] is 6.8 µM; in assay [2], 27.3 µM; in assay [3] it was 9.2 µM; in assay [4], 1 µM.
`N[C@@H]1CCCC[C@H]1N.O=C1[O][Pt]([OH])([Br])[O]C1=O` (mixture of isomers) [Example 2, trans,cis,cis-[PtBr(OH) (R,R-dach) (ox)]]: the results for the IC50 in assay [3] and in assay [4] were 2.7 µM and 1.5 µM, respectively.
`N[C@@H]1CCCC[C@H]1N.O=C([O-])C(=O)[O-].[Pt+2]` [Example 1-OHP, oxaliplatin]: the IC50 is 1.6 µM in assay [5]; 1.1 µM in assay [1]; 0.1 µM in assay [6]; 9.2 µM in assay [7]; 8.6 µM in assay [2]; 0.5 µM in assay [3]. Moreover, the IC50 in assay [8] is 0.8 µM.
Consider `N[C@@H]1CCCC[C@H]1N.O=C1[O][Pt]([OH])([Cl])[O]C(=O)C12CCC2` (mixture of isomers) [Comparative Example 5, trans,cis,cis-[PtCl(OH) (R,R-dach) (cbdc)]], for which the IC50 was found to be 3.4 µM in assay [1], 29 µM in assay [2], 4.5 µM in assay [3] and 3.3 µM in assay [4].
For `N[C@@H]1CCCC[C@H]1N.[OH][Pt]([Cl])([Cl])[Cl]` (mixture of isomers) [Example 3, trans,cis,cis-[PtCl(OH) (R,R-dach) (Cl)2]] the same measures were 8.6 µM, 17.1 µM, 2.6 µM and 0.9 µM.
Turning to `N[C@@H]1CCCC[C@H]1N.O=C1[O][Pt]([Cl])([O]CCO)[O]C1=O` (mixture of isomers) [Comparative Example 2, trans,cis,cis-[PtCl (OCH2CH2OH) (R,R-dach) (ox)]], the IC50 came to 9.7 µM in assay [5]; 5.6 µM in assay [1]; 1.9 µM in assay [6]; 42.6 µM in assay [7]; 58.1 µM in assay [2]; 10.8 µM in assay [3]. The results for the concentration for half-maximal inhibition (IC50) in assay [8] and in assay [4] were 5.7 µM and 6.1 µM, respectively.
`NC1CCCCC1N.[Cl][Pt][Cl]` (stereo not shown) [Pt(dach)Cl2]: the IC50 in assay [5] is 14.7 µM; in assay [1], 8.5 µM; in assay [6], 0.5 µM; in assay [7], 13.8 µM; in assay [2], 22.3 µM; in assay [3], 3.7 µM. For the same compound, the results for the IC50 in assay [8] and in assay [4] were 3.4 µM and 2.1 µM, respectively.
For `N[C@@H]1CCCC[C@H]1N.O=C1[O][Pt]([OH])([OH])[O]C1=O` (mixture of isomers) [Comparative Example 3, trans,cis,cis-[Pt(OH)2 (R,R-dach) (ox)]], the IC50 in assay [1] was above 100 µM; in assay [2] it was above 100 µM; in assay [3], above 100 µM; in assay [4], 39.2 µM.
In the case of `CC(=O)[O][Pt]1([OH])[O]C(=O)C(=O)[O]1.N[C@@H]1CCCC[C@H]1N` (mixture of isomers) [Comparative Example 1, trans,cis,cis-[Pt(OH)(OAc)(R,R-dach) (ox)]], the IC50 is 62.9 µM in assay [5]; 36.7 µM in assay [1]; 6.2 µM in assay [6]; 55.7 µM in assay [7]; above 100 µM in assay [2]; 45.3 µM in assay [3]. Also, the IC50 in assay [8] is 44.3 µM; in assay [4] it was 26.1 µM.

These data come from patent publication US10988496B2, “Platinum (IV) complex” (Nippon Kayaku Kabushiki Kaisha, priority 2015, dated 2021).
